From patent US8349793B2, “Method for treatment of inflammatory disease and disorder” (Heal0r, Ltd., priority 2010, dated 2013)
Where no end group is shown, it is not given here.

Experiments:
keratinocytes [1] = experiment: Keratinocyte proliferation in vitro (PCNA); assay type: cell-based, Balb/c mice
Method: Primary murine keratinocytes from 2 days old Balb/c mice were grown for 5 days to reach full confluence in 0.05 mM Ca^2+ MEM medium. HO/02/10 treatment (10^−6M and 10^−5M) was applied 6 hours prior to induction of differentiation. Cells were harvested, run on SDS PAGE gel and immunoblotted using anti-PCNA antibodies. In addition, C57Black mice, 8-10 weeks of age were subjected to full thickness wounding in the upper back area to induce epidermis remodeling and differentiation. Following the wounding, mice were treated daily with HO/02/10 (ranged 40-4000 mg/kg/day) for 7 days. At the termination point, mice were euthanized and upper back skin samples were fixed in 4% paraformaldehyde solution, following paraffin embedding and slide preparation. Skin samples were then subjected to immunohistochemical staining utilizing PCNA antibody. (n=18).
(§1) FIGS. 7 and 8 presents a summary of expression data in keratinocytes utilizing various peptide PKCα inhibitors: MPDY-1 (SEQ ID NO: 21) as well as data for the peptide PKCα inhibitors AIP-1 (SEQ ID NO: 3), AIP-2 (SEQ ID NO: 20), AWOT-1 (SEQ ID NO: 5) and PPDY-1 (SEQ ID NO: 22). […] FIG. 8 presents a summary of expression data in keratinocytes for various peptide PKCα inhibitors.

keratinocytes [2] = experiment: Keratinocyte migration; assay type: cell-based; set-up: concentration or dose not given beside the values
keratinocytes [3] = experiment: Cytokine secretion in keratinocytes stimulated by LPS, TNFα or IL-17 (ELISA); assay type: cell-based, BALB/C mice
Method: To determine their effects, keratinocytes were derived from newborn BALB/C mice skin. The cells were incubated for 5 days in 24 wells plate. Cells were then incubated with PBS−/− as control or stimulated by LPS, TNFα, or IL-17. PKCα inhibitors were added as indicated. Medium containing secreted cytokines was collected after 48 hr and analyzed using ELISA. FIG. 40 is a tabular summary of cytokine secretion.
PKCδactivators were also shown to have an anti-inflammatory effect on keratinocytes and splenocytes. Keratinocytes were derived from newborn BALB/C mice skin. The cells were incubated for 5 days in 24 wells plate. Cells were then incubated with PBS−/− as control or stimulated by LPS or TNFα. The PKCδ inhibitor DAP-1 (SEQ ID NO: 16) was added. Medium containing secreted cytokines was collected after 48 hr and analyzed using ELISA. FIG. 35 is a tabular summary showing cytokine secretion in splenocytes stimulated with LPS. […] Cytokine secretion in keratinocytes stimulated by TNFα: following stimulation with 35 ng/ml TNFα. And treatment with 10 μg/ml of DAP-1, the cytokine levels of IL-1α, G-CSF, MIP-2 and KC were reduced by 95%, 70%, 20% and 30# respectively.
PKCε inhibitors were also shown to have an anti-inflammatory effect on keratinocytes. Keratinocytes were derived from newborn BALB/C mice skin. The cells were incubated for 5 days in 24 wells plate. Cells were then incubated with PBS−/− as control or stimulated by LPS or TNFα. The PKCεinhibitors EPIP-1 (SEQ ID NO: 20), EPIP-2 (SEQ ID NO: 21), or EPIP-4 (SEQ ID NO: 23) were added. Medium containing secreted cytokines was collected after 48 hr and analyzed using ELISA. FIGS. 36-39 show the results for secretion of specific cytokines while Table 8 summarizes cytokine secretion for the various PKCε inhibitors: […]

keratinocytes [4] = experiment: Keratinocyte differentiation markers (Filaggrin, Loricrin, Keratin 1); assay type: cell-based, C57BL/6J mice; conditions: concentration: EPIP1 and DAP1 1 μg/ml, 10 μg/ml, EPIP2 10 μg/ml
Method: Keratinocytes derived from C57BL/6J mice were incubated in medium containing Ca^2+ to induce keratinocytes differentiation. Cells were then incubated in the presence of […] (1 μg/ml). Cells were harvested, run on SDS PAGE gel and immunoblotted using anti-Filaggrin (Fil), anti Loricrin (Lor) and anti-Keratin 1 (K1) antibody.
as §1

splenocytes = experiment: Cytokine secretion in splenocytes stimulated with LPS or TNFα (ELISA); assay type: cell-based, B6 mice; conditions: TNFα 25 ng/ml, 48 hr
Description: Inhibitory effect on activated splenocytes: Splenocytes were derived from B6 mice. […] Medium containing secreted cytokines was collected after 48 hr and analyzed using ELISA.

[5] = LPS 1 [μg/ml], peptide [10 μg/ml], 48 hr
[6] = LPS 1 [μg/ml], peptide [1 g/ml], 48 hr
[7] = TNF [35 ng/ml], peptide [10 μg/ml], 48 hr
[8] = TNF [35 ng/ml], peptide [1 g/ml], 48 hr
[9] = keratinocytes, LPS (1 μg/ml) (EPIP4: printed 1 mg/ml), peptide concentration not given
[10] = keratinocytes, TNFa stim (35 ng/ml), 1 μg/ml of peptide (given for EPIP1, EPIP2, not for EPIP4), reduction printed with or without minus sign

Q: Which results are given for PYIALNVD [EPIP-2]?
A: Proliferation markers (keratinocytes [1]; 1 μg/ml): Induces; Proliferation markers (keratinocytes [1]; 10 μg/ml): Reduce; Migration, Induces (keratinocytes [2]): (200%); G-CSF secretion (change) (keratinocytes [3]; [5]): −75%; IL-6 secretion (change) (keratinocytes [3]; [5]): −55%; IP-10 secretion (change) (keratinocytes [3]; [5]): −40%; KC secretion (change) (keratinocytes [3]; [5]): −90%; G-CSF secretion (change) (keratinocytes [3]; [6]): −50%; IL-6 secretion (change) (keratinocytes [3]; [6]): −40%; IP-10 secretion (change) (keratinocytes [3]; [6]): −50%; KC secretion (change) (keratinocytes [3]; [6]): −90%; G-CSF secretion (change) (keratinocytes [3]; [7]): −100%; IL-6 secretion (change) (keratinocytes [3]; [7]): −95%; IP-10 secretion (change) (keratinocytes [3]; [7]): (−40%); G-CSF secretion (change) (keratinocytes [3]; [8]): −100%; IL-6 secretion (change) (keratinocytes [3]; [8]): −95%; IP-10 secretion (change) (keratinocytes [3]; [8]): (−65%); G-CSF secretion (change) (keratinocytes [3]; [9]): −50%; IL-6 secretion (change) (keratinocytes [3]; [9]): −40%; IP-10 secretion (change) (keratinocytes [3]; [9]): −50%; KC secretion (change) (keratinocytes [3]; [9]): −90%; Reduces Chemokines IP 10 (keratinocytes [3]; [10]): Chemokines IP 10 (65%); Reduces proinflammatory cytokines IL-6 (keratinocytes [3]; [10]): (95%), systemic cytokines G-SCF; Differentiation markers: granular differentiation (keratinocytes [4]): Reduces granular; Differentiation markers: spainous differentiation (keratinocytes [4]): Slightly induces; IL-4 (% reduction in secretion) (splenocytes; peptide 1 μg/ml): 15%; IL-17 (% reduction in secretion) (splenocytes; peptide 1 μg/ml): 80%; IP-10 (% reduction in secretion) (splenocytes; peptide 1 μg/ml): 20%; G-CSF (% reduction in secretion) (splenocytes; peptide 10 μg/ml): 30%; IL-6 (% reduction in secretion) (splenocytes; peptide 10 μg/ml): 25%; IL-10 (% reduction in secretion) (splenocytes; peptide 10 μg/ml): 30%; IL-17 (% reduction in secretion) (splenocytes; peptide 10 μg/ml): 85%; IP-10 (% reduction in secretion) (splenocytes; peptide 10 μg/ml): 10%
